Source: patent US20100298141A1, “SUBSTITUTED PYRIDINE N-OXIDE HERBICIDES” (E. I. DU PONT DE NEMOURS AND COMPANY, priority 2007, published 2010)

Tests used:
[1] = system: redroot pigweed; test: Test A pre-/postemergence greenhouse test; assay type: in vivo, Amaranthus retroflexus; conditions: for Plant response rating, Pigweed: 0 to 100 scale where 0 is no effect and 100 is complete control; for Pigweed plant response rating: 0 to 100 scale
Outline: (§1)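 Planting was into mixed loam soil and sand; preemergence treatment followed as a directed soil spray. Concurrently, emerged plants (one- to two-leaf, 2–10 cm) received postemergence applications of identically formulated compound (non-phytotoxic solvent, surfactant). After approximately ten days under greenhouse conditions, injury was judged by eye against untreated plants.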

[2] = system: bermudagrass; test: Test C pre-/postemergence test; assay type: in vivo, Cynodon dactylon
Outline: (§2)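 Compounds in a non-phytotoxic solvent with surfactant applied preemergence to seeded pots and, at the same time, postemergence to plants 2–18 cm tall (1- to 4-leaf stage). Paddy tests: pots flooded to 3 cm, compound applied into the water, depth held throughout.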

[3] = system: Italian ryegrass; test: Test C pre-/postemergence test; assay type: in vivo, Lolium multiflorum
Outline: as §2

[4] = system: eastern black nightshade; test: Test C pre-/postemergence test; assay type: in vivo, Solanum ptycanthum
Outline: as §2

[5] = system: cocklebur; test: Test C pre-/postemergence test; assay type: in vivo, Xanthium strumarium
Outline: as §2

[6] = system: morningglory; test: Test A pre-/postemergence greenhouse test; assay type: in vivo, Ipomoea spp.; conditions: for Plant response rating, Morningglory: 0 to 100 scale where 0 is no effect and 100 is complete control; for Morningglory plant response rating: 0 to 100 scale
Outline: as §1

[7] = system: wild oat; test: Test C pre-/postemergence test; assay type: in vivo, Avena fatua
Outline: as §2

[8] = system: wheat; test: Test C pre-/postemergence test; assay type: in vivo, Triticum aestivum
Outline: as §2

[9] = system: common (oilseed) sunflower; test: Test C pre-/postemergence test; assay type: in vivo, Helianthus annuus
Outline: as §2

[10] = system: giant foxtail; test: Test C pre-/postemergence test; assay type: in vivo, Setaria faberii
Outline: as §2

[11] = system: corn; test: Test A pre-/postemergence greenhouse test; assay type: in vivo, Zea mays; conditions: for Plant response rating, Corn: 0 to 100 scale where 0 is no effect and 100 is complete control; for Corn plant response rating: 0 to 100 scale
Outline: as §1

[12] = system: johnsongrass; test: Test C pre-/postemergence test; assay type: in vivo, Sorghum halepense
Outline: as §2

[13] = system: rice; test: Test C flooded paddy test; assay type: in vivo, Oryza sativa; conditions: Flood
Outline: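 Test compounds are applied straight into paddy water held 3 cm above the soil surface, with that flood maintained for the whole test. After 13 to 15 days in the greenhouse, each species is scored visually relative to controls.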

[14] = system: morningglory; test: Test C pre-/postemergence test; assay type: in vivo, Ipomoea coccinea
Outline: as §2

[15] = system: kochia; test: Test C pre-/postemergence test; assay type: in vivo, Kochia scoparia
Outline: as §2

[16] = system: corn; test: Test C pre-/postemergence test; assay type: in vivo, Zea mays
Outline: as §2

[17] = system: yellow nutsedge; test: Test C pre-/postemergence test; assay type: in vivo, Cyperus esculentus
Outline: as §2

[18] = Postemergence, 500 g ai/ha, 0 is no effect, 100 is complete control
[19] = Preemergence, 125 g ai/ha, 0 no effect, 100 complete control
[20] = 125 g ai/ha, preemergence, scale 0 (no effect) to 100 (complete control)
[21] = Postemergence, 125 g ai/ha, scale 0 to 100, 0 no effect, 100 complete control
[22] = Postemergence, 250 g ai/ha, scale 0 to 100, 0 no effect, 100 complete control
[23] = Preemergence, 31 g ai/ha, scale 0 to 100 (0 no effect, 100 complete control)
[24] = preemergence, 250 g ai/ha, scale 0 (no effect) to 100 (complete control)
[25] = 62 g ai/ha, Preemergence, scale 0 to 100

Cn1nc(C(F)(F)C(F)(F)F)c(C[S+]([O-])c2cccc[n+]2[O-])c1OCC(F)(F)F (centres unmarked) [Compound 79]
80: Plant response rating, Wheat [8, 22] | Wheat plant response rating [8, 24] | Foxtail, Giant plant response rating [10, 20] | Corn plant response rating [11, 18] | Plant response rating, Corn ([11]; Preemergence, 500 g ai/ha) | Plant response rating, Johnsongrass [12, 23] | Plant response rating, Rice ([13]; 250 g ai/ha, scale 0 to 100, 0 no effect, 100 complete control, 13 to 15 days)
20: Plant response rating, Corn ([11]; Postemergence, 125 g ai/ha) | Plant response rating (0 to 100), Johnsongrass ([12]; Postemergence, 62 g ai/ha)
35: Plant response rating (0 to 100), Oat, Wild ([7]; Postemergence, 62 g ai/ha)
95: Plant response rating, Bermudagrass [2, 23] | Johnsongrass plant response rating [12, 25] | Johnsongrass plant response rating [12, 20] | Johnsongrass plant response rating [12, 24]
100: Plant response rating, Pigweed ([1]; Preemergence, 500 g ai/ha) | Bermudagrass plant response rating ([2]; 62 g ai/ha, Preemergence, scale 0 to 100 (0 no effect, 100 complete control)) | Bermudagrass plant response rating [2, 20] | Bermudagrass plant response rating [2, 24] | Ryegrass, Italian plant response rating [3, 20] | Plant response rating, Ryegrass, Italian [3, 22] | Ryegrass, Italian plant response rating [3, 24] | Nightshade plant response rating [4, 24] | Morningglory plant response rating [6, 18] | Sunflower plant response rating [9, 20] | Sunflower plant response rating [9, 24] | Foxtail, Giant plant response rating [10, 24] | Morningglory plant response rating [14, 25] | Morningglory plant response rating [14, 20] | Morningglory plant response rating [14, 24] | Kochia plant response rating [15, 25] | Kochia plant response rating [15, 20] | Plant response rating, Kochia [15, 23] | Kochia plant response rating [15, 24] | Corn plant response rating [16, 25] | Corn plant response rating [16, 20] | Corn plant response rating [16, 24] | Nutsedge, Yellow plant response rating [17, 24]
25: Plant response rating, Johnsongrass [12, 21] | Plant response rating (0 to 100), Corn ([16]; Postemergence, 62 g ai/ha)
0: Plant response rating (0 to 100), Bermudagrass ([2]; Postemergence, 31 g ai/ha) | Plant response rating (0 to 100), Bermudagrass ([2]; Postemergence, 62 g ai/ha) | Plant response rating (0 to 100), Ryegrass, Italian ([3]; Postemergence, 31 g ai/ha) | Cocklebur plant response rating [5, 25] | Plant response rating (0 to 100), Cocklebur ([5]; Postemergence, 31 g ai/ha) | Plant response rating (0 to 100), Cocklebur ([5]; Postemergence, 62 g ai/ha) | Plant response rating, Cocklebur [5, 21] | Plant response rating, Cocklebur [5, 22] | Plant response rating, Cocklebur [5, 23] | Plant response rating (0 to 100), Oat, Wild ([7]; Postemergence, 31 g ai/ha) | Plant response rating (0 to 100), Wheat ([8]; Postemergence, 31 g ai/ha) | Plant response rating (0 to 100), Foxtail, Giant ([10]; Postemergence, 31 g ai/ha) | Plant response rating (0 to 100), Foxtail, Giant ([10]; Postemergence, 62 g ai/ha) | Corn plant response rating [11, 19] | Plant response rating (0 to 100), Johnsongrass ([12]; Postemergence, 31 g ai/ha) | Plant response rating (0 to 100), Morningglory ([14]; Postemergence, 31 g ai/ha) | Plant response rating (0 to 100), Morningglory ([14]; Postemergence, 62 g ai/ha) | Plant response rating, Morningglory [14, 21] | Plant response rating, Morningglory [14, 22] | Plant response rating (0 to 100), Kochia ([15]; Postemergence, 31 g ai/ha) | Plant response rating (0 to 100), Kochia ([15]; Postemergence, 62 g ai/ha) | Plant response rating, Kochia [15, 21] | Plant response rating, Kochia [15, 22] | Plant response rating (0 to 100), Corn ([16]; Postemergence, 31 g ai/ha) | Plant response rating (0 to 100), Nutsedge, Yellow ([17]; Postemergence, 31 g ai/ha) | Plant response rating (0 to 100), Nutsedge, Yellow ([17]; Postemergence, 62 g ai/ha) | Plant response rating, Nutsedge, Yellow [17, 21] | Plant response rating, Nutsedge, Yellow [17, 23]
70: Pigweed plant response rating [1, 18] | Oat, Wild plant response rating [7, 25] | Plant response rating, Oat, Wild [7, 23] | Foxtail, Giant plant response rating [10, 25] | Plant response rating, Foxtail, Giant [10, 22] | Plant response rating, Foxtail, Giant [10, 23] | Plant response rating, Rice ([13]; 62 g ai/ha, scale 0 to 100 (0 no effect, 100 complete control))
30: Plant response rating, Pigweed ([1]; Postemergence, 125 g ai/ha) | Plant response rating (0 to 100), Wheat ([8]; Postemergence, 62 g ai/ha)
50: Plant response rating, Bermudagrass [2, 22] | Nightshade plant response rating [4, 25] | Nightshade plant response rating [4, 20] | Cocklebur plant response rating [5, 20] | Cocklebur plant response rating [5, 24] | Plant response rating, Morningglory ([6]; Postemergence, 125 g ai/ha) | Plant response rating, Oat, Wild [7, 22] | Plant response rating, Foxtail, Giant [10, 21] | Plant response rating, Johnsongrass [12, 22]
75: Nutsedge, Yellow plant response rating [17, 25]
90: Pigweed plant response rating [1, 19] | Plant response rating, Morningglory ([6]; Preemergence, 500 g ai/ha) | Oat, Wild plant response rating [7, 24] | Nutsedge, Yellow plant response rating [17, 20]
45: Plant response rating, Bermudagrass [2, 21]
10: Wheat plant response rating [8, 25] | Plant response rating, Wheat [8, 23] | Plant response rating, Nutsedge, Yellow [17, 22]
60: Ryegrass, Italian plant response rating [3, 25] | Plant response rating, Ryegrass, Italian [3, 21] | Morningglory plant response rating [6, 19] | Wheat plant response rating [8, 20] | Plant response rating, Wheat [8, 21] | Sunflower plant response rating [9, 25] | Plant response rating, Morningglory [14, 23] | Plant response rating, Corn [16, 21] | Plant response rating, Corn [16, 22] | Plant response rating, Corn [16, 23]
40: Plant response rating (0 to 100), Ryegrass, Italian ([3]; Postemergence, 62 g ai/ha) | Plant response rating, Ryegrass, Italian [3, 23] | Plant response rating, Nightshade [4, 23] | Plant response rating, Oat, Wild [7, 21] | Plant response rating, Sunflower [9, 23]
85: Oat, Wild plant response rating [7, 20]
